By IC50 is commonly meant the concentration at which inhibition is half-maximal.

The first experiment has as its target T1, Cytochrome P450 1A2 (Homo sapiens, UniProt P05177).
T1 sequence (P05177 whole entry): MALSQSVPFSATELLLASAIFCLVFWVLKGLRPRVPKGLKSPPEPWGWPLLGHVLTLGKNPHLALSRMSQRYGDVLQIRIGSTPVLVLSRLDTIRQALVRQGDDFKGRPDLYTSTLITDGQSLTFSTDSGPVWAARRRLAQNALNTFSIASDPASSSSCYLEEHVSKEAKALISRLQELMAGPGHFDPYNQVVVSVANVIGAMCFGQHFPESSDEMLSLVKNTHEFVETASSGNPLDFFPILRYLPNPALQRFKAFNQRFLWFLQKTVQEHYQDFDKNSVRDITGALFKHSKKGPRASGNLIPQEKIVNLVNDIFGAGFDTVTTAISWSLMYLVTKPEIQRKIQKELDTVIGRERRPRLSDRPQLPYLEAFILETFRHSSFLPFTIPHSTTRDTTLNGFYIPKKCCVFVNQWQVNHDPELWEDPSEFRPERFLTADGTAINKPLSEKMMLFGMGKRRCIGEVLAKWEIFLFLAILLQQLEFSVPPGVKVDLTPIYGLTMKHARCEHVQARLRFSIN
The experiment in a line: Inhibitory concentration against recombinant human cytochrome P450 1A2.
Conditions: not given
For the molecule `Cc1ccc2c(C)cccc2c1`, the IC50 amounted to 25 µM.
As to `Cc1cccc2c(C)cccc12`, the IC50 came to 42 µM.
Still for that read-out and setting: with `Cc1cc(C)oc(=O)c1` the figure was 4500 µM; with `CN1CCC[C@@H]1c1cccnc1` [R-NICOTINE], 4100 µM.
Regarding `COc1ccc(C=O)cc1`, the IC50 is 270 µM.
The same measure, in the same setting: with `Oc1ccc2ccccc2c1` [BETANAPHTHOL] the figure was 17 µM; with `CN1C(=O)CCC1c1cccnc1` (single isomer, unassigned) [COTININE], 5400 µM; with `CCc1ccc2ccccc2c1`, 19 µM.
Regarding `Fc1ccc2ccccc2c1`, the IC50 was found to be 49 µM.
On the same count and under the same terms, under `Clc1ccccc1-c1ccccc1` stands 230 µM; under `CCCCC1CCCCC1` [BUTYLCYCLOHEXANE], 55 µM; under `Clc1ccc(-c2ccccc2)cc1`, 49 µM.
On the same count and under the same terms, under `Cc1ccc2ccccc2n1` [QUINALDINE] stands 40 µM; under `Cc1cnc2ccccc2c1`, 13 µM.
`O=c1[nH]c2ccccc2o1` [BENZOXAZOLINONE]: the IC50 worked out at 370 µM.
On the same count and under the same terms, with `Cc1cccc2ccccc12` the figure was 110 µM; with `Clc1cccc2ccccc12`, 50 µM; with `Cc1ccc2ccccc2c1`, 120 µM.
Same read-out and setting: with `Cc1ccc2ccc(C)cc2c1` the figure was 65 µM; with `c1ccc2c(c1)CCO2`, 1200 µM.
Still for that read-out and setting: under `Cc1cc(C)c2ccccc2n1` stands 2.4 µM; under `Cc1ccc2cccc(C)c2c1`, 7.5 µM; under `Cc1ccc(C)c2ccccc12`, 3.6 µM.
`Oc1cccc2ccccc12` [1-NAPHTHOL]: the IC50 is 3.2 µM.
Still for that read-out and setting: with `c1ccc2c(c1)CCC2` the figure was 550 µM; with `Cc1cc2ccccc2cn1`, 21 µM; with `Cc1ccc2cc(C)ccc2c1`, 52 µM.
Still for that read-out and setting: with `CCC1CCC(=O)O1` (stereo unspecified) the figure was 9900 µM; with `O=C1CCC(c2ccccc2)O1` (stereo unspecified), 2300 µM.
Take `c1ccc2ccccc2c1`: the concentration for half-maximal inhibition (IC50) was 700 µM.
Same read-out and setting: with `O=C1Cc2ccccc2O1` the figure was 260 µM; with `CCCCc1ccccc1` [BUTYLBENZYL], 3700 µM.
On the same count and under the same terms, with `c1ccc(-c2ccccc2)cc1` [BIPHENYL] the figure was 160 µM.
On the same count and under the same terms, under `Cc1ccc(CCN)cc1` stands 14 µM.

Still in this experiment, the particulars now being: human, recombinant human CYP1A2.
Regarding `O=C1CCCCCO1`, the IC50 is above 40000 µM.
Same read-out and setting: with `COC1=CC(=O)OC1` the figure was above 40000 µM.
